Results reported in US20090176776A1, “SMALL MOLECULE INHIBITORS OF HIV-1 CAPSID ASSEMBLY” (UNIVERSITY OF ALABAMA AT BIRMINGHAM, priority 2005, published 2009).
pIC50: −log10 of the molar value.

Experiments:
Format in all cases: cell-based
HIV-1NL43 [1] = assay: Anti-HIV assay (single round), infectivity of virus produced, titered on TZM-b1 cells; settings: virus from NL43-transfected 293T cells, 72 hours; luciferase after two days; read-out: Infectivity 50%
Description: (§1) Anti-HIV Assays (Single Round). The inhibitory effect of the compounds on virus production and infectivity were determined by measuring the level of p24 produced in the presence of various concentrations of compounds from HEK-293 cells transiently transfected with pNL43 and by titering the virus on TZM-b1 cells. Briefly, 2.5×10^5 HEK-293 cells/ml were transfected with pNL43 using FuGene 6. Four hours post transfection the cells were plated in 96-well plates containing 100 μl of various concentrations of compounds (0-75 μM or 0-300 μM for mock transfected cells) in triplicate. At 72-hours post transfection virus supernatant was collected and stored at −80° C. until analysis. The level of p24 produced at each compound concentration was determined relative to the level produced in the presence of the DMSO only controls using HIV-1 p24 enzyme-linked immunosorbent assay (ELISA) (Beckman-Coulter). To determine the infectivity of the virus produced TZM-b1 cells were plated at 1×10^5 cells/ml in 100 μL in 96-well plates overnight. The next day, the media was replaced with 75 μL DMEM supplemented with 1% FBS, 1× PSG and 40 μg/ml DEAE Dextran and 25 μL of viral supernatant from the HEK-293 cells was added to each well. Three hours later 100 μL of DMEM with 7% FBS was added to each well. Two days after infection the cells were lysed and the level of luciferase expression was determined using the Bright-Glo assay.
(§2) FIGS. 12-18 show the anti-HIV assays for the examples of chemical compounds used according to the invention. After in-vitro assay, the chemical compounds in FIGS. 12-18 were selected for screening for cell viability and toxicity. Jurkat cells assay was used as screening assay. In Jurkat cells assay, JLTRG-R5 cells were used as Indicator cells and MOLT4 cells as Producer cells of NL43 and BAL virus. 96 chemical compounds were plated at seven different concentration from 75 μM to 0 μM at three-fold serial dilutions in 384 well plate. After five days, GFP expression was read. Cell viability was monitored with Alamar Blue assay. Luc M7 assay was designed to measure inhibitory activity of the chemical compounds to viral replication. After infection of cells with YU2 virus, plate cells in 96-well plate in the presence of six concentration of compounds in DMSO. At day 6, the number of cells in wells were read with Cell Titer Glo kit or by counting the number of cells infected with Bright Glo kit. 293T cells assay was designed to determine the toxicity. 293T cells were transfected with NL43. After four hours, transfected cells were plated in 96-well plate in DMSO and 2 μM Indinavir. 72 hours later, viral supernatant was collected and plated on JC53BL. Luciferase expression was measure after two days and p24 analysis was conducted with 1:1000 and 1:2000 dilutions.

HIV-1YU2 = assay: Anti-HIV assay (multiple round), luciferase expression in Luc-M7 cells; settings: Luc-M7 cells infected with HIV-1YU2, 6 days, Bright-Glo
Description: Anti-HIV Assays (Multiple Round). The inhibitory effects of the tested compounds on HIV-1YU2 replication were determined by the level of luciferase expression after 6 days of infection using Bright-Glo assay (Promega). An amount of 1.5×10^4 Luc-M7 (a gift from Ned Landau) cells per ml were infected with HIV-1YU2 at a multiplicity of infection (MOI) of 3. The HIV-1 infected ([…] compound) or mock-infected (0-300 μM compound) Luc-M7 cells were placed in 96-well culture plates (100 μl/well) with 100 μl of various concentrations of the compounds with 20 μg/ml DEAE Dextran in triplicate and incubated at 37° C. under 5% CO2 at 100% humidity. After 6 days, cell viability was quantified by Cell-Titer Glo assay (Promega). […] On day 5 cell viability was determined in the mock-infected cells. FIGS. 12-18 show the anti-HIV assays for the examples of chemical compounds used according to the invention. After in-vitro assay, the chemical compounds in FIGS. 12-18 were selected for screening for cell viability and toxicity. Jurkat cells assay was used as screening assay. […] After five days, GFP expression was read. Cell viability was monitored with Alamar Blue assay. Luc M7 assay was designed to measure inhibitory activity of the chemical compounds to viral replication. After infection of cells with YU2 virus, plate cells in 96-well plate in the presence of six concentration of compounds in DMSO. At day 6, the number of cells in wells were read with Cell Titer Glo kit or by counting the number of cells infected with Bright Glo kit. 293T cells assay was designed to determine the toxicity. 293T cells were transfected with NL43. After four hours, transfected cells were plated in 96-well plate in DMSO and 2 μM Indinavir. 72 hours later, viral supernatant was collected and plated on J[…].

HIV-1NL43 [2] = assay: Anti-HIV assay (single round), p24 production by pNL43-transfected cells (ELISA); settings: p24 in supernatant of NL43-transfected 293T cells, 72 hours; read-out: p24 50%
Description: as §1, §2

[3] = MTS score (Table 1; method not described)

Structure (SMILES): Cc1ncc(C[n+]2csc(CCOC(=O)C3C4CC5CC(C4)CC3C5)c2C)c(N)n1.Cl.[Cl-] (stereo not shown) [Compound 26]
- pIC50 (HIV-1NL43 [1]): 4.75
- pIC50 (HIV-1YU2): 5.34
- pIC50 (HIV-1NL43 [2]): 4.22
- MTS AVG 4 (No Effect) ([3]; average of the MTS scores at 10, 30 and 100 μM): 4.000
- MTS 10 μM ([3]; score at nominal 10 μM, 4 = No Effect): 4
- MTS 30 μM ([3]; score at nominal 30 μM, 4 = No Effect): 4
- MTS 100 μM ([3]; score at nominal 100 μM, 4 = No Effect): 4
